Target: T1, UL98 (CMV alkaline nuclease) (Human herpesvirus 5 strain AD169, UniProt P16789)
T1 sequence (P16789 1-584): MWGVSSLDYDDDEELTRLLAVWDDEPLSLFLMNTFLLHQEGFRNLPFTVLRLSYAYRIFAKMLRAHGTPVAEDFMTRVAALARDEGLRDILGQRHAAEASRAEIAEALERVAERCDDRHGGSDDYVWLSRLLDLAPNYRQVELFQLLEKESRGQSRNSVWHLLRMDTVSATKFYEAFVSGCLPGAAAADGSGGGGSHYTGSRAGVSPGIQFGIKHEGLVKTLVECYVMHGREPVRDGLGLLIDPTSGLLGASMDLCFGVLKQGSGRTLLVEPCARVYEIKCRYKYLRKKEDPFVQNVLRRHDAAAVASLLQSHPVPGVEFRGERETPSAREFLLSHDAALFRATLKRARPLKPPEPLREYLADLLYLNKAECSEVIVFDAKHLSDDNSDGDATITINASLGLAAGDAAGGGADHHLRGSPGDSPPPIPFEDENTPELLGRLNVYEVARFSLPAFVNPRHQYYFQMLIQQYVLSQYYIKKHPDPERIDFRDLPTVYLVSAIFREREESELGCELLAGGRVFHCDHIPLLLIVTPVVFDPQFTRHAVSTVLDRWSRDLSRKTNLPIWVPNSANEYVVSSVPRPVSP
Assay: TCA-soluble […] release from labeled E. coli duplex DNA
Assay type: biochemical

SMILES | IC50 [µM]
CC(=O)Nc1ccc(Nc2cc(S(=O)(=O)O)c(N)c3c2C(=O)c2ccccc2C3=O)cc1 [acid blue 40] | 99
Cc1cc(C)c(Nc2cc(S(=O)(=O)O)c(N)c3c2C(=O)c2ccccc2C3=O)c(C)c1 [atanyl blue PRL] | 4.5 ± 0.7
